Measured values as given in PubChem BioAssay (NCI).
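Exposure lasted 48 hours, with cells grown in 96-well plates and compounds tested at five concentrations. Abbreviation: GI50, concentration required for 50% inhibition of growth. TGI is the concentration that stops growth completely.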

How the values were obtained:
Assay in all cases: NCI anticancer screen, dose series, 48 h
786-0 renal = tested on: 786-0 renal
A498 renal = tested on: A498 renal
A549 NSCLC = tested on: A549 NSCLC
ACHN renal = tested on: ACHN renal
BT-549 breast = tested on: BT-549 breast
CCRF-CEM leukemia = tested on: CCRF-CEM leukemia
COLO 205 colon = tested on: COLO 205 colon
DU-145 prostate = tested on: DU-145 prostate
EKVX NSCLC = tested on: EKVX NSCLC
HCC-2998 colon = tested on: HCC-2998 colon
HCT-116 colon = tested on: HCT-116 colon
HCT-15 colon = tested on: HCT-15 colon
HL-60(TB) leukemia = tested on: HL-60(TB) leukemia
HOP-62 NSCLC = tested on: HOP-62 NSCLC
HOP-92 NSCLC = tested on: HOP-92 NSCLC
HS 578T breast = tested on: HS 578T breast
HT29 colon = tested on: HT29 colon
IGROV1 ovarian = tested on: IGROV1 ovarian
K-562 leukemia = tested on: K-562 leukemia
KM12 colon = tested on: KM12 colon
LOX IMVI melanoma = tested on: LOX IMVI melanoma
M14 melanoma = tested on: M14 melanoma
MALME-3M melanoma = tested on: MALME-3M melanoma
MCF7 breast = tested on: MCF7 breast
MDA-MB-231 breast = tested on: MDA-MB-231 breast
MDA-MB-435 = tested on: MDA-MB-435
MOLT-4 leukemia = tested on: MOLT-4 leukemia
NCI-H226 lung = tested on: NCI-H226 lung
NCI-H23 lung = tested on: NCI-H23 lung
NCI-H460 lung = tested on: NCI-H460 lung
NCI-H522 lung = tested on: NCI-H522 lung
NCI/ADR-RES ovarian = tested on: NCI/ADR-RES ovarian
OVCAR-3 ovarian = tested on: OVCAR-3 ovarian
OVCAR-4 ovarian = tested on: OVCAR-4 ovarian
OVCAR-5 ovarian = tested on: OVCAR-5 ovarian
OVCAR-8 ovarian = tested on: OVCAR-8 ovarian
PC-3 prostate = tested on: PC-3 prostate
RPMI-8226 leukemia = tested on: RPMI-8226 leukemia
RXF 393 renal = tested on: RXF 393 renal
SF-268 CNS = tested on: SF-268 CNS
SF-295 CNS = tested on: SF-295 CNS
SF-539 CNS = tested on: SF-539 CNS
SK-MEL-2 melanoma = tested on: SK-MEL-2 melanoma
SK-MEL-28 melanoma = tested on: SK-MEL-28 melanoma
SK-MEL-5 melanoma = tested on: SK-MEL-5 melanoma
SK-OV-3 ovarian = tested on: SK-OV-3 ovarian
SN12C renal = tested on: SN12C renal
SNB-19 CNS = tested on: SNB-19 CNS
SNB-75 CNS = tested on: SNB-75 CNS
SR leukemia = tested on: SR leukemia
SW-620 colon = tested on: SW-620 colon
T-47D breast = tested on: T-47D breast
TK-10 renal = tested on: TK-10 renal
U251 CNS = tested on: U251 CNS
UACC-257 melanoma = tested on: UACC-257 melanoma
UACC-62 melanoma = tested on: UACC-62 melanoma
UO-31 renal = tested on: UO-31 renal

`C=C1C(=O)O[C@H]2[C@H]1CC/C(COC(=O)c1ccc(Cl)nc1)=C\CC[C@@]1(C)O[C@@H]21` showed a GI50 (786-0 renal) of 1.75 µM, a TGI (786-0 renal) of 3.53 µM and a GI50 (A498 renal) of 17.8 µM. The TGI (A498 renal) was 32.7 µM, the GI50 (A549 NSCLC) was 11.3 µM and the TGI (A549 NSCLC) was 26.2 µM. For the same compound, the GI50 (ACHN renal) was 1.68 µM, the TGI (ACHN renal) was 3.6 µM and the GI50 (BT-549 breast) was 1.95 µM. The TGI (BT-549 breast) was 6.71 µM, the GI50 (CCRF-CEM leukemia) was 1.22 µM and the TGI (CCRF-CEM leukemia) was 6.9 µM. It also gave a GI50 (COLO 205 colon) of 1.74 µM, a TGI (COLO 205 colon) of 3.96 µM and a GI50 (DU-145 prostate) of 1.75 µM. For the same compound, the TGI (DU-145 prostate) was 4.01 µM, the GI50 (EKVX NSCLC) was 3.41 µM and the TGI (EKVX NSCLC) was 13.6 µM. For the same compound, the GI50 (HCC-2998 colon) was 4.68 µM, the TGI (HCC-2998 colon) was 18 µM and the GI50 (HCT-116 colon) was 1.45 µM. For the same compound, the TGI (HCT-116 colon) was 2.84 µM, the GI50 (HCT-15 colon) was 1.36 µM and the TGI (HCT-15 colon) was 3.39 µM. The GI50 (HL-60(TB) leukemia) was 1.57 µM, the TGI (HL-60(TB) leukemia) was 4.72 µM and the GI50 (HOP-62 NSCLC) was 11 µM. For the same compound, the TGI (HOP-62 NSCLC) was 26.3 µM, the GI50 (HOP-92 NSCLC) was 2.18 µM and the TGI (HOP-92 NSCLC) was 4.84 µM. The GI50 (HS 578T breast) was 4.56 µM, the TGI (HS 578T breast) was 36.2 µM and the GI50 (HT29 colon) was 1.66 µM. It also gave a TGI (HT29 colon) of 4.11 µM, a GI50 (IGROV1 ovarian) of 1.43 µM and a TGI (IGROV1 ovarian) of 6.2 µM. For the same compound, the GI50 (K-562 leukemia) was 2.19 µM, the TGI (K-562 leukemia) was 12.2 µM and the GI50 (KM12 colon) was 3.96 µM. It also gave a TGI (KM12 colon) of 16.7 µM, a GI50 (LOX IMVI melanoma) of 1.58 µM and a TGI (LOX IMVI melanoma) of 3.33 µM. It also gave a GI50 (M14 melanoma) of 1.71 µM, a TGI (M14 melanoma) of 4.02 µM and a GI50 (MALME-3M melanoma) of 2.12 µM. It also gave a TGI (MALME-3M melanoma) of 4.19 µM, a GI50 (MCF7 breast) of 1.08 µM and a TGI (MCF7 breast) of 3.72 µM. It also gave a GI50 (MDA-MB-231 breast) of 2.4 µM, a TGI (MDA-MB-231 breast) of 5.7 µM and a GI50 (MDA-MB-435) of 2.14 µM. It also gave a TGI (MDA-MB-435) of 6.81 µM, a GI50 (MOLT-4 leukemia) of 2.57 µM and a TGI (MOLT-4 leukemia) of 7.2 µM. It also gave a GI50 (NCI-H226 lung) of 2.66 µM, a TGI (NCI-H226 lung) of 6.78 µM and a GI50 (NCI-H23 lung) of 3.08 µM. The TGI (NCI-H23 lung) was 12.4 µM, the GI50 (NCI-H460 lung) was 5.19 µM and the TGI (NCI-H460 lung) was 21.4 µM. For the same compound, the GI50 (NCI-H522 lung) was 1.59 µM, the TGI (NCI-H522 lung) was 3.82 µM and the GI50 (NCI/ADR-RES ovarian) was 5.03 µM. For the same compound, the TGI (NCI/ADR-RES ovarian) was 23.9 µM, the GI50 (OVCAR-3 ovarian) was 1.03 µM and the TGI (OVCAR-3 ovarian) was 2.32 µM. For the same compound, the GI50 (OVCAR-4 ovarian) was 4.49 µM, the TGI (OVCAR-4 ovarian) was 18.4 µM and the GI50 (OVCAR-5 ovarian) was 2.95 µM. It also gave a TGI (OVCAR-5 ovarian) of 9.4 µM, a GI50 (OVCAR-8 ovarian) of 3.26 µM and a TGI (OVCAR-8 ovarian) of 12.7 µM. For the same compound, the GI50 (PC-3 prostate) was 10.2 µM, the TGI (PC-3 prostate) was 23.1 µM and the GI50 (RPMI-8226 leukemia) was 1.58 µM. The TGI (RPMI-8226 leukemia) was 4.87 µM, the GI50 (RXF 393 renal) was 1.04 µM and the TGI (RXF 393 renal) was 2.31 µM. The GI50 (SF-268 CNS) was 2.62 µM, the TGI (SF-268 CNS) was 9.49 µM and the GI50 (SF-295 CNS) was 10.9 µM. It also gave a TGI (SF-295 CNS) of 22.9 µM, a GI50 (SF-539 CNS) of 1.61 µM and a TGI (SF-539 CNS) of 3.61 µM. For the same compound, the GI50 (SK-MEL-2 melanoma) was 2.06 µM, the TGI (SK-MEL-2 melanoma) was 5.51 µM and the GI50 (SK-MEL-28 melanoma) was 1.94 µM. For the same compound, the TGI (SK-MEL-28 melanoma) was 4.9 µM, the GI50 (SK-MEL-5 melanoma) was 3.23 µM and the TGI (SK-MEL-5 melanoma) was 11.1 µM. For the same compound, the GI50 (SK-OV-3 ovarian) was 14.8 µM, the TGI (SK-OV-3 ovarian) was 28.5 µM and the GI50 (SN12C renal) was 2.15 µM. For the same compound, the TGI (SN12C renal) was 5.42 µM, the GI50 (SNB-19 CNS) was 7.55 µM and the TGI (SNB-19 CNS) was 20.1 µM. It also gave a GI50 (SNB-75 CNS) of 12.4 µM, a TGI (SNB-75 CNS) of 31.6 µM and a GI50 (SR leukemia) of 0.658 µM. The TGI (SR leukemia) was 38.8 µM, the GI50 (SW-620 colon) was 1.23 µM and the TGI (SW-620 colon) was 2.96 µM. It also gave a GI50 (T-47D breast) of 1.79 µM, a TGI (T-47D breast) of 5.3 µM and a GI50 (TK-10 renal) of 2.86 µM. It also gave a TGI (TK-10 renal) of 6.77 µM, a GI50 (U251 CNS) of 4.85 µM and a TGI (U251 CNS) of 15.9 µM. The GI50 (UACC-257 melanoma) was 1.83 µM, the TGI (UACC-257 melanoma) was 4.17 µM and the GI50 (UACC-62 melanoma) was 1.63 µM. For the same compound, the TGI (UACC-62 melanoma) was 3.74 µM, the GI50 (UO-31 renal) was 1.37 µM and the TGI (UO-31 renal) was 2.96 µM.
